Usually IC50 stands for the concentration needed to halve the response being measured. A word on the solubility: it is the dissolved amount per volume that the medium holds.

This note sets out measurements from patent US8476043B2, “Inhibitors for the soluble epoxide hydrolase” (The Regents of the University of California, priority 2004, dated 2013).

In brackets after ≈: the same amount, converted by molar mass.

One data set addresses T1, rat sEH (Rattus norvegicus, UniProt P80299).
T1 construct: EET fatty acid was hydrolyzed to 30% by rat renal cortex cytosol; from tissue; host or cells: rat renal cortex cytosol
T1 sequence (P80299 1-554): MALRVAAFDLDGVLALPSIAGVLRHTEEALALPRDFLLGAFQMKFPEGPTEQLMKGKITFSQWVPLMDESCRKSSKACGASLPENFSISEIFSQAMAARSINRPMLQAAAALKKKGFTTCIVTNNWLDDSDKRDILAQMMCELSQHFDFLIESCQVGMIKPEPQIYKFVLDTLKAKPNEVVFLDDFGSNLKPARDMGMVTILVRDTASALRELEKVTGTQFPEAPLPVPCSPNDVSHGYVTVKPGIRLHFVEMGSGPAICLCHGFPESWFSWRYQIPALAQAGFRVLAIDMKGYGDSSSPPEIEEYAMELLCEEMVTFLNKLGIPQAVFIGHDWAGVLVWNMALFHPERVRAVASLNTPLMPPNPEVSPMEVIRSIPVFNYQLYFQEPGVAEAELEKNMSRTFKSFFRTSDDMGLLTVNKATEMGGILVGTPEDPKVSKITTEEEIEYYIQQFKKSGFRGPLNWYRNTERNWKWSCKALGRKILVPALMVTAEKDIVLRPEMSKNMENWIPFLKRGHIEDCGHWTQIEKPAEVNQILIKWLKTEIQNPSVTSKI
Kind of data set: Relative turnover of arachidonic acid epoxides by rat renal cortex cytosol. It counts as biochemical. The conditions noted are these: Table 19, EET mixture hydrolyzed to 30% by rat renal cortex cytosol. As to the method: For epoxy fatty acid hydrolysis, the soluble epoxide hydrolase prefers substrates with epoxide moieties that are more distant from the carboxyl terminal. Specifically the substrate preference decreases in the order of 14,15-EET>11,12-EET>8,9-EET>>>5,6-EET for the epoxides of arachidonic acid. Independently, the relative substrate turnover of the epoxy arachidonates were calculated at 0.1:8.1:14.3 when a 1:1:2 mixture of 8,9-, 11,12-, and 14,15-EET fatty acid was hydrolyzed to 30% by rat renal cortex cytosol. By considering the primary pharmacophore of the urea to be a transition-state analog of epoxide hydrolysis, inhibitors have now been developed which incorporate long aliphatic acids. These compounds are better substrate and transition state mimics than those incorporating shorter aliphatic acids. Accordingly, optimal soluble epoxide hydrolase inhibitors can be obtained by producing compounds with aliphatic acid substituents (i.e. a tertiary pharmacophore) which are separated from the primary pharmacophore by an equivalent distance as the terminal acid is separated from the epoxide in optimal substrates. Within the enzyme active site, epoxy fatty acids have been predicted to exist in an extended or pseudo-linear confirmation. Therefore, both the epoxy fatty acids and the aliphatic acid containing urea structures were approximated as two dimensional linear representations and measurements were made on each species. The critical measurements taken were distances (in angstroms) from the carboxylate hydroxyl to the urea carbonyl and the urea nitrogens.

A short description of data set [1]: Oral treatment and pharmacokinetic study in a human subject or patient. It is filed as in vivo. To be noted: patient approaching end stage renal disease, brief oral treatment, low doses. An excerpt: The discovery of the secondary and tertiary pharmacophores has also led to the employment of combinatorial chemistry approaches for establishing a wide spectrum of compounds having sEH inhibitory activity. The polar pharmacophores divide the molecule into domains each of which can be easily manipulated by common chemical approaches in a combinatorial manner, leading to the design and confirmation of novel orally available therapeutic agents for the treatment of diseases such as hypertension and vascular inflammation. The agents of the present invention treat such diseases while simultaneously increasing sodium excretion, reducing vascular and renal inflammation, and reducing male erectile dysfunction As shown below (see Example 51 and FIG. 13), alterations in solubility, bioavailability and pharmacological properties leads to compounds that can alter the regulatory lipids of experimental animals increasing the relative amounts of epoxy arachidonate derivatives when compared either to their diol products or to the proinflammatory and hypertensive hydroxyeicosatetraenoic acids (HETEs). Since epoxy arachidonates are anti-hypertensive and anti-inflammatory, altering the lipid ratios can lead to reduced blood pressure and reduced vascular and renal inflammation.
Serial bled blood samples (3-50 μL) were collected from finger tips into 50 μL heparinized capillary tube at various time points (0.5, 1, 2, 4, 6, 12 and 24 hr) after administration. These samples were used to measure parent compounds and their metabolites using LC-MS/MS as described above for experiments with mice. Blood samples were added 400 μL of distilled water and 25 μL of internal standard (500 ng/mL CTU), and vortexed. The blood samples were then extracted with 500 μL of ethyl acetate twice and the ethyl acetate layer was dried under nitrogen. The residue was reconstituted in 25 μL of methanol, and aliquots (10 μL) were injected onto the LC-MS/MS system as described above. Biological end points came from clinical chemistry samples run at The University of California Davis Clinical Laboratory and a series of 6 inflammatory markers including C reactive protein were run blind at the University of California Davis Department of Nephrology.

The nature of the next data set: Solubility in oil. It counts as physicochemical. To be noted: Table 5.
For data set [2], the target named is T2, human sEH (Homo sapiens, UniProt P34913).
T2 construct: made in house
T2 sequence (P34913 1-555): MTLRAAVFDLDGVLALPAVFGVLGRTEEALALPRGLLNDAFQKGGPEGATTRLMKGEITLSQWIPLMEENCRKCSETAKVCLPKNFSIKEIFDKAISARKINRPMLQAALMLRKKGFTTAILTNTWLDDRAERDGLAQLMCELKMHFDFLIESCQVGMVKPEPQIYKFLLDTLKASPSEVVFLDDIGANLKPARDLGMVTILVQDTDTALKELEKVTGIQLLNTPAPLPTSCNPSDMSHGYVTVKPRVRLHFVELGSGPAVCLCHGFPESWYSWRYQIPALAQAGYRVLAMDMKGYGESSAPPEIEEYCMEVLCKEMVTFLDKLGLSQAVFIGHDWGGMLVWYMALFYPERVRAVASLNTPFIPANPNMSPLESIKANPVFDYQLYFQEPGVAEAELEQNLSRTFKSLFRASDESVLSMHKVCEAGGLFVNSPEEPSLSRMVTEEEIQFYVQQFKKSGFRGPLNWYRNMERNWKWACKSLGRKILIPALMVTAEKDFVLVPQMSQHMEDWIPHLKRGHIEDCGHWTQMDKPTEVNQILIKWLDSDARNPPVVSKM
Briefly: sEH inhibition, fluorescent assay with cyano(6-methoxy-naphthalen-2-yl)methyl trans-[(3-phenyloxiran-2-yl)methyl]carbonate as substrate. It is filed as biochemical. To be noted: for IC50: Table 5, fluorescent-based assay, 0.96 nM human sEH, pH 7.0, [S] = 5 μM, read-out: Human sEH IC50; for fold improvement in inhibition of the human enzyme: compared with 687 (compound 4). The method in brief:
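Affinity-purified recombinant human sEH from baculovirus expression; activity followed as formation of fluorescent 6-methoxy-2-naphthaldehyde from the carbonate substrate. IC50 by regression of at least five points, two on each side of the IC50 in the linear region, from at least three separate runs, each in triplicate.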

Data set [3] can be described thus: Microsomal, NADPH dependent metabolic stability in rat hepatic microsomes. It counts as in vitro ADME. The conditions noted are these: 1 μM, NADPH generating system, P450 dependent. On the procedure: FIG. 6 is a graph illustrating the metabolic stabilities of 1-adamantyl-3-dodecyl urea (686) and 1-cyclohexyl-3-dodecyl urea (297) in rat hepatic microsomes. Microsomes were incubated with 1 μM 686 or 297 in the presence of an NADPH generating system. Data are expressed as mean±SD of triplicate experiments.
To evaluate the metabolic stability of these inhibitors, the microsomal and NADPH dependent metabolism of a number of potent sEH inhibitors was evaluated. […] The first step in the metabolic transformation of the n-alkyl to n-alkanoic acid derivatives is an NAPDH dependent process carried out by cytochrome P450 dependent omega hydroxylation in rodent and human hepatic tissue preparations (see FIG. 8). When in vivo metabolism was evaluated, evidence for the beta-oxidation of the alkanoic acid derivatives was also found (see FIG. 9).

The nature of data set [4]: Pharmacokinetics after oral gavage in mice. It counts as in vivo, male Swiss Webster mice. On the procedure:
Animals. Male Swiss Webster mice, 6 weeks-old, were obtained from Charles River (CA, USA). After 1-2 week acclimation period, healthy animals were assigned to study groups based on body-weight stratified randomization procedure. The body weight of animals used in all the experiments ranged from 28 g to 38 g.
Administration and measurement. Pharmacokinetic studies in mice used a 5 mg/kg dose of sEH inhibitors dissolved in corn oil and 4% DMSO administered orally. […] Then the samples were centrifuged at 6000 rpm for 5 min, and the ethyl acetate layer was dried under nitrogen. The residue was reconstituted in 25 μL of methanol, and aliquots (5 μL) were injected onto the LC-MS/MS system.
Analysis. Pharmacokinetics analysis was performed using SigmaPlot software system (SPSS science, Chicago, Ill.).

The nature of data set [5]: In vitro metabolism in liver microsomes and S9 fractions. It counts as in vitro ADME. The conditions noted are these: rat and human microsomes, with NADPH. The text has this: Both rat and human microsomes were used for the 950 metabolism study.
For orientation: Liver microsomes are a subcellular fraction often used to study metabolism.

The nature of the next data set: Solubility in water. It counts as physicochemical.
A further data set deals with T3, mouse sEH (Mus musculus, UniProt P34914).
T3 construct: made in house
T3 sequence (P34914 1-554): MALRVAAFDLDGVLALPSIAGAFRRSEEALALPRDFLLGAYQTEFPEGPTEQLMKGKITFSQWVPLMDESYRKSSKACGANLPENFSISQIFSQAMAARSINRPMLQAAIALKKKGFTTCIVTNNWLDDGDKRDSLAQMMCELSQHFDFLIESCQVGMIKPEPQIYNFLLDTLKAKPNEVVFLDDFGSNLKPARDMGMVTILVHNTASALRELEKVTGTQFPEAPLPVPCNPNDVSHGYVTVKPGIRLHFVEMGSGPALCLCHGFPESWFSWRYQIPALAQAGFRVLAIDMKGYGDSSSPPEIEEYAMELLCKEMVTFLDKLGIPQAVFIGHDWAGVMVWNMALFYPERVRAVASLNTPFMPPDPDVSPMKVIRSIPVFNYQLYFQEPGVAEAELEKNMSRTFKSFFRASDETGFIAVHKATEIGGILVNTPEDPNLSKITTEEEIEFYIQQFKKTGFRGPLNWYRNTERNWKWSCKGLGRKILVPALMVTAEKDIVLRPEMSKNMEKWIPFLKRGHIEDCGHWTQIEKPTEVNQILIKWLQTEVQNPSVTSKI
Kind of data set: sEH inhibition, spectrometric assay with racemic 4-nitrophenyl-trans-2,3-epoxy-3-phenylpropyl carbonate as substrate. The conditions noted are these: Table 5; spectrometric-based assay; read-out: Mouse sEH IC50. It counts as biochemical. On the procedure: (§1) Recombinant mouse sEH and human sEH were produced in a baculovirus expression system and purified by affinity chromatography. […] Protein concentration was quantified by using the Pierce BCA assay using Fraction V bovine serum albumin as the calibrating standard.
(§2) IC50 values were determined in one of two method. One method uses racemic 4-nitrophenyl-trans-2,3-epoxy-3-phenylpropyl carbonate as substrate. […] Assays were performed in triplicate. […] The curve was generated from at least three separate runs, each in triplicate, to obtain the standard deviation (SD) given in Table 1 thru Table 4.

Data set [6] has as its target T2, human sEH. Described as above. The conditions noted are these: Table 5; spectrometric-based assay; read-out: Human sEH IC50. It is filed as biochemical. On the procedure: as §1, §2

As to `CCCCC/C=C\C/C=C\CC1OC1C/C=C\CCCC(=O)O` (stereo not drawn) [8,9-EET], the “Relative EET Turnover” value at rat sEH is on record as 1.
As for `CCCCOC(=O)CCCCCCCCCCCNC(=O)NC12CC3CC(CC(C3)C1)C2` [Compound 800, 1-(1-Adamantyl)-3-(11-butoxycarbonylundecyl)urea], in data set [1], the blood urea nitrogen result is on record as “dramatic reduction in blood urea nitrogen”; the “serum levels of C reactive protein” value is listed as “dramatically reduced serum levels of C reactive protein”; the “serum profile of regulatory lipids” value was “altered the serum profile of regulatory lipids in a positive manner”; the “systolic and diastolic blood pressure” value is “reduced systolic and diastolic blood pressure”.
Consider `O=C(CCCCCCCCCCCNC(=O)NC12CC3CC(CC(C3)C1)C2)NS(=O)(=O)c1ccccc1` [Compound 914], for which, in “Solubility in oil”, the Solubility in oil is reported as 5,000 μg/mL. At human sEH [2], the IC50 stood at 1.9 nM and the “fold improvement in inhibition of the human enzyme” value is on record as “about 1.5 fold”.
`CCCCCC1OC1C/C=C\C/C=C\C/C=C\CCCC(=O)O` (stereo not drawn) [14,15-EET]: the “Relative EET Turnover” value at rat sEH is listed as 14.3.
`CCCCC/C=C\C[C@H]1O[C@H]1C/C=C\C/C=C\CCCC(=O)O` [11,12-EET]: the “Relative EET Turnover” value at rat sEH came to 8.1.
As to `O=C(O)CCCCCCCCCCCNC(=O)NC12CC3CC(CC(C3)C1)C2` [Compound 687, 1-(1-adamantyl)-3-(12-dodecanoic acid)urea], in data set [3], the “metabolic stability in microsomal preparations” value is given as “stable”. In addition, the “time to reach the maximum concentration” value in [4] turned out to be 30 min.
For `CCCCC/C=C\C/C=C\C/C=C\CC1OC1CCCC(=O)O` (stereo not drawn) [5,6-EET], the “Relative EET Turnover” value at rat sEH was 0.1.
`CCOCCOCCOCCCCCNC(=O)NC12CC3CC(CC(C3)C1)C2` [Compound 950]: in [5], the “major metabolite in vitro” value is reported as “hydroxy metabolite was the major metabolite”.
With `CS(=O)(=O)NC(=O)CCCCCCCCCCCNC(=O)NC12CC3CC(CC(C3)C1)C2` [Compound 848, N-[12-(3-Adamantan-1-yl-ureido)dodecanoyl]methanesulfonamide], the “fold lower water solubility than compound 4 (687)” value in the data set “Solubility in water” was 3 fold. Further, the solubility in “Solubility in water” (water, Table 5) worked out at 10 µg/mL (≈ 21.3 µM). In addition, in “Solubility in oil”, the Solubility in oil is 4,000 μg/mL. For the same compound, the values for the IC50 on human sEH [2], at mouse sEH and on human sEH [6] were 2.1 nM, 50 ± 10 nM and 100 ± 10 nM, respectively. Also, the “fold improvement in inhibition of the human enzyme” value on human sEH [2] was “about 1.5 fold”.
In the case of `CCCCCCCCCCCCNC(=O)NC12CC3CC(CC(C3)C1)C2` [Compound 686, 1-adamantyl-3-dodecylurea, reference compound], the “solubility of adamantyl compound relative to the corresponding cyclohexyl derivative” value in the data set “Solubility in water” (789 vs. 772, 790 vs. 791, 686 vs. 297) is given as “approximately 2 ×”. Also, in data set [3], the “metabolic stability in microsomal preparations” value is “rapidly metabolized”. Further, in data set [4], the “time to reach the maximum concentration” value came out at 120 min.
